Assay results published in patent publication US6872690B2, “Herbicidal 2-alkynyl-pyri (mi) dines” (WYETH, priority 2001, dated 2005).

Columns and labels:
Assay type in all cases: in vivo
Ambrosia artemisifolia [1] = assay: Post-emergence herbicidal activity test; conditions: 2-4 weeks after treatment
Summary of the method: (§1)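 Injury is scored on a rating scale 2 to 4 weeks after spraying. Seedlings receive test compound formulated from acetone solutions diluted with water, applied at about 0.025 to 0.4 kg per hectare per pot, and are then grown on greenhouse benches.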

Echinochloa crus-galli [2] = assay: Post-emergence herbicidal activity test; conditions: 2-4 weeks after treatment
Summary of the method: as §1

Abutilon theophrasti [3] = assay: Post-emergence herbicidal activity test; conditions: 2-4 weeks after treatment
Summary of the method: as §1

Glycine max [4] = assay: Post-emergence herbicidal activity test; conditions: 2-4 weeks after treatment
Summary of the method: as §1

Matricaria inodora [5] = assay: Post-emergence herbicidal activity test; conditions: 2-4 weeks after treatment
Summary of the method: as §1

Alopecurus myosuroides [6] = assay: Post-emergence herbicidal activity test; conditions: 2-4 weeks after treatment
Summary of the method: as §1

Triticum aestivum [7] = assay: Post-emergence herbicidal activity test; conditions: 2-4 weeks after treatment
Summary of the method: as §1

Zea mays [8] = assay: Post-emergence herbicidal activity test; conditions: 2-4 weeks after treatment
Summary of the method: as §1

Ipomoea hederacea [9] = assay: Post-emergence herbicidal activity test; conditions: 2-4 weeks after treatment
Summary of the method: as §1

Setaria viridis [10] = assay: Post-emergence herbicidal activity test; conditions: 2-4 weeks after treatment
Summary of the method: as §1

Cassia obtusifolia = assay: Pre-emergence test; conditions: 3 weeks after treatment
Summary of the method: (§2)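 Damage scores are assigned 2 to 4 weeks post-treatment relative to untreated sown soil. Compounds are applied pre-emergence as aqueous-diluted acetone solutions (0.4% alkylphenol/ethylene oxide condensate) onto recently sown horticultural loam at 0.013, 0.025, 0.100 or 0.400 kg active/ha, 900 L/ha.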

Ambrosia artemisifolia [11] = assay: Pre-emergence test; conditions: 3 weeks after treatment
Summary of the method: as §2

Echinochloa crus-galli [12] = assay: Pre-emergence test; conditions: 3 weeks after treatment
Summary of the method: as §2

Abutilon theophrasti [13] = assay: Pre-emergence test; conditions: 3 weeks after treatment
Summary of the method: as §2

Glycine max [14] = assay: Pre-emergence test; conditions: 3 weeks after treatment
Summary of the method: as §2

Matricaria inodora [15] = assay: Pre-emergence test; conditions: 3 weeks after treatment
Summary of the method: as §2

Alopecurus myosuroides [16] = assay: Pre-emergence test; conditions: 3 weeks after treatment
Summary of the method: as §2

Triticum aestivum [17] = assay: Pre-emergence test; conditions: 3 weeks after treatment
Summary of the method: as §2

Zea mays [18] = assay: Pre-emergence test; conditions: 3 weeks after treatment
Summary of the method: as §2

Ipomoea hederacea [19] = assay: Pre-emergence test; conditions: 3 weeks after treatment
Summary of the method: as §2

Setaria viridis [20] = assay: Pre-emergence test; conditions: 3 weeks after treatment
Summary of the method: as §2

Lamium purpureum = assay: Pre-emergence test; conditions: 0.400 kg/ha, 3 weeks after treatment
Summary of the method: as §2

Galium aparine = assay: Pre-emergence test; conditions: 0.400 kg/ha, 3 weeks after treatment
Summary of the method: as §2

Digitaria sanguinalis = assay: Pre-emergence test; conditions: 0.400 kg/ha, 3 weeks after treatment
Summary of the method: as §2

Stellaria media = assay: Pre-emergence test; conditions: 0.400 kg/ha, 3 weeks after treatment
Summary of the method: as §2

Orysa sativa = assay: Pre-emergence test; conditions: 0.400 kg/ha, 3 weeks after treatment
Summary of the method: as §2

Cc1cc(C#Cc2ccc(F)cc2)nc(Oc2cc(C(F)(F)F)nn2C)c1 [Example 2, 4-methyl-6-(4-fluorophenylethynyl)-2-(1-methyl-3-trifluoromethylpyrazol-5-yloxy)-pyridine]
Post-emergence application AMBEL (Ambrosia artemisifolia [1]; 0.025 kg/ha): 2 (2-Slight effect)
Post-emergence application AMBEL (Ambrosia artemisifolia [1]; 0.100 kg/ha): 5 (5-Definite injury)
Post-emergence application AMBEL (Ambrosia artemisifolia [1]; 0.400 kg/ha): 7 (7-Good herbicidal effect)
Post-emergence application ECHCG (Echinochloa crus-galli [2]; 0.025 kg/ha): 3 (3-Moderate effect)
Post-emergence application ECHCG (Echinochloa crus-galli [2]; 0.100 kg/ha): 4 (4-Injury)
Post-emergence application ECHCG (Echinochloa crus-galli [2]; 0.400 kg/ha): 8 (8-Approaching complete kill)
Post-emergence application ABUTH (Abutilon theophrasti [3]; 0.025 kg/ha): 2 (2-Slight effect)
Post-emergence application ABUTH (Abutilon theophrasti [3]; 0.100 kg/ha): 6 (6-Herbicidal effect)
Post-emergence application ABUTH (Abutilon theophrasti [3]; 0.400 kg/ha): 8 (8-Approaching complete kill)
Post-emergence application GLXMA (Glycine max [4]; 0.025 kg/ha): 4 (4-Injury)
Post-emergence application GLXMA (Glycine max [4]; 0.100 kg/ha): 5 (5-Definite injury)
Post-emergence application GLXMA (Glycine max [4]; 0.400 kg/ha): 7 (7-Good herbicidal effect)
Post-emergence application MATIN (Matricaria inodora [5]; 0.025 kg/ha): 2 (2-Slight effect)
Post-emergence application MATIN (Matricaria inodora [5]; 0.100 kg/ha): 5 (5-Definite injury)
Post-emergence application MATIN (Matricaria inodora [5]; 0.400 kg/ha): 8 (8-Approaching complete kill)
Post-emergence application ALOMY (Alopecurus myosuroides [6]; 0.025 kg/ha): 2 (2-Slight effect)
Post-emergence application ALOMY (Alopecurus myosuroides [6]; 0.100 kg/ha): 3 (3-Moderate effect)
Post-emergence application ALOMY (Alopecurus myosuroides [6]; 0.400 kg/ha): 5 (5-Definite injury)
Post-emergence application TRZWA (Triticum aestivum [7]; 0.025 kg/ha): 2 (2-Slight effect)
Post-emergence application TRZWA (Triticum aestivum [7]; 0.100 kg/ha): 2 (2-Slight effect)
Post-emergence application TRZWA (Triticum aestivum [7]; 0.400 kg/ha): 3 (3-Moderate effect)
Post-emergence application ZEAMX (Zea mays [8]; 0.025 kg/ha): 1 (1-Trace effect)
Post-emergence application ZEAMX (Zea mays [8]; 0.100 kg/ha): 2 (2-Slight effect)
Post-emergence application ZEAMX (Zea mays [8]; 0.400 kg/ha): 2 (2-Slight effect)
Post-emergence application IPOHE (Ipomoea hederacea [9]; 0.025 kg/ha): 7 (7-Good herbicidal effect)
Post-emergence application IPOHE (Ipomoea hederacea [9]; 0.100 kg/ha): 7 (7-Good herbicidal effect)
Post-emergence application IPOHE (Ipomoea hederacea [9]; 0.400 kg/ha): 9 (9-Complete kill)
Post-emergence application SETVI (Setaria viridis [10]; 0.025 kg/ha): 4 (4-Injury)
Post-emergence application SETVI (Setaria viridis [10]; 0.100 kg/ha): 7 (7-Good herbicidal effect)
Post-emergence application SETVI (Setaria viridis [10]; 0.400 kg/ha): 9 (9-Complete kill)
Assessment (pre-emergence application) CASOB (Cassia obtusifolia; 0.013 kg/ha): 0 (0-No effect)
Assessment (pre-emergence application) CASOB (Cassia obtusifolia; 0.025 kg/ha): 1 (1-Trace effect)
Assessment (pre-emergence application) CASOB (Cassia obtusifolia; 0.100 kg/ha): 3 (3-Moderate effect)
Assessment (pre-emergence application) CASOB (Cassia obtusifolia; 0.400 kg/ha): 7 (7-Good herbicidal effect)
Assessment (pre-emergence application) MBEL (Ambrosia artemisifolia [11]; 0.013 kg/ha): 0 (0-No effect)
Assessment (pre-emergence application) MBEL (Ambrosia artemisifolia [11]; 0.025 kg/ha): 2 (2-Slight effect)
Assessment (pre-emergence application) MBEL (Ambrosia artemisifolia [11]; 0.100 kg/ha): 6 (6-Herbicidal effect)
Assessment (pre-emergence application) MBEL (Ambrosia artemisifolia [11]; 0.400 kg/ha): 9 (9-Complete kill)
Assessment (pre-emergence application) ECHCG (Echinochloa crus-galli [12]; 0.013 kg/ha): 1 (1-Trace effect)
Assessment (pre-emergence application) ECHCG (Echinochloa crus-galli [12]; 0.025 kg/ha): 2 (2-Slight effect)
Assessment (pre-emergence application) ECHCG (Echinochloa crus-galli [12]; 0.100 kg/ha): 6 (6-Herbicidal effect)
Assessment (pre-emergence application) ECHCG (Echinochloa crus-galli [12]; 0.400 kg/ha): 7 (7-Good herbicidal effect)
Assessment (pre-emergence application) ABUTH (Abutilon theophrasti [13]; 0.013 kg/ha): 0 (0-No effect)
Assessment (pre-emergence application) ABUTH (Abutilon theophrasti [13]; 0.025 kg/ha): 1 (1-Trace effect)
Assessment (pre-emergence application) ABUTH (Abutilon theophrasti [13]; 0.100 kg/ha): 2 (2-Slight effect)
Assessment (pre-emergence application) ABUTH (Abutilon theophrasti [13]; 0.400 kg/ha): 3 (3-Moderate effect)
Assessment (pre-emergence application) GLXMA (Glycine max [14]; 0.013 kg/ha): 0 (0-No effect)
Assessment (pre-emergence application) GLXMA (Glycine max [14]; 0.025 kg/ha): 1 (1-Trace effect)
Assessment (pre-emergence application) GLXMA (Glycine max [14]; 0.100 kg/ha): 2 (2-Slight effect)
Assessment (pre-emergence application) GLXMA (Glycine max [14]; 0.400 kg/ha): 3 (3-Moderate effect)
Assessment (pre-emergence application) MATIN (Matricaria inodora [15]; 0.013 kg/ha): 1 (1-Trace effect)
Assessment (pre-emergence application) MATIN (Matricaria inodora [15]; 0.025 kg/ha): 5 (5-Definite injury)
Assessment (pre-emergence application) MATIN (Matricaria inodora [15]; 0.100 kg/ha): 9 (9-Complete kill)
Assessment (pre-emergence application) MATIN (Matricaria inodora [15]; 0.400 kg/ha): 9 (9-Complete kill)
Assessment (pre-emergence application) ALOMY (Alopecurus myosuroides [16]; 0.013 kg/ha): 1 (1-Trace effect)
Assessment (pre-emergence application) ALOMY (Alopecurus myosuroides [16]; 0.025 kg/ha): 2 (2-Slight effect)
Assessment (pre-emergence application) ALOMY (Alopecurus myosuroides [16]; 0.100 kg/ha): 5 (5-Definite injury)
Assessment (pre-emergence application) ALOMY (Alopecurus myosuroides [16]; 0.400 kg/ha): 8 (8-Approaching complete kill)
Assessment (pre-emergence application) TRZWA (Triticum aestivum [17]; 0.013 kg/ha): 0 (0-No effect)
Assessment (pre-emergence application) TRZWA (Triticum aestivum [17]; 0.025 kg/ha): 0 (0-No effect)
Assessment (pre-emergence application) TRZWA (Triticum aestivum [17]; 0.100 kg/ha): 2 (2-Slight effect)
Assessment (pre-emergence application) TRZWA (Triticum aestivum [17]; 0.400 kg/ha): 4 (4-Injury)
Assessment (pre-emergence application) ZEAMX (Zea mays [18]; 0.013 kg/ha): 0 (0-No effect)
Assessment (pre-emergence application) ZEAMX (Zea mays [18]; 0.025 kg/ha): 0 (0-No effect)
Assessment (pre-emergence application) ZEAMX (Zea mays [18]; 0.100 kg/ha): 1 (1-Trace effect)
Assessment (pre-emergence application) ZEAMX (Zea mays [18]; 0.400 kg/ha): 2 (2-Slight effect)
Assessment (pre-emergence application) IPOHE (Ipomoea hederacea [19]; 0.013 kg/ha): 0 (0-No effect)
Assessment (pre-emergence application) IPOHE (Ipomoea hederacea [19]; 0.025 kg/ha): 1 (1-Trace effect)
Assessment (pre-emergence application) IPOHE (Ipomoea hederacea [19]; 0.100 kg/ha): 2 (2-Slight effect)
Assessment (pre-emergence application) IPOHE (Ipomoea hederacea [19]; 0.400 kg/ha): 6 (6-Herbicidal effect)
Assessment (pre-emergence application) SETVI (Setaria viridis [20]; 0.013 kg/ha): 3 (3-Moderate effect)
Assessment (pre-emergence application) SETVI (Setaria viridis [20]; 0.025 kg/ha): 4 (4-Injury)
Assessment (pre-emergence application) SETVI (Setaria viridis [20]; 0.100 kg/ha): 8 (8-Approaching complete kill)
Assessment (pre-emergence application) SETVI (Setaria viridis [20]; 0.400 kg/ha): 9 (9-Complete kill)

Cc1cc(C#C[Si](C)(C)C)nc(Oc2cc(C(F)(F)F)nn2C)c1 [Example 14]
Post-emergence application AMBEL (Ambrosia artemisifolia [1]; 0.200 kg/ha): 3 (3-Moderate effect)
Post-emergence application ECHCG (Echinochloa crus-galli [2]; 0.200 kg/ha): 1 (1-Trace effect)
Post-emergence application ABUTH (Abutilon theophrasti [3]; 0.200 kg/ha): 1 (1-Trace effect)
Post-emergence application GLXMA (Glycine max [4]; 0.200 kg/ha): 4 (4-Injury)
Post-emergence application MATIN (Matricaria inodora [5]; 0.200 kg/ha): 5 (5-Definite injury)
Post-emergence application ALOMY (Alopecurus myosuroides [6]; 0.200 kg/ha): 3 (3-Moderate effect)
Post-emergence application TRZWA (Triticum aestivum [7]; 0.200 kg/ha): 1 (1-Trace effect)
Post-emergence application ZEAMX (Zea mays [8]; 0.200 kg/ha): 1 (1-Trace effect)
Post-emergence application IPOHE (Ipomoea hederacea [9]; 0.200 kg/ha): 8 (8-Approaching complete kill)
Post-emergence application SETVI (Setaria viridis [10]; 0.200 kg/ha): 3 (3-Moderate effect)
Assessment (pre-emergence application) LAMPU (Lamium purpureum): 9 (9-Complete kill)
Assessment (pre-emergence application) CASOB (Cassia obtusifolia; 0.400 kg/ha): 3 (3-Moderate effect)
Assessment (pre-emergence application) MBEL (Ambrosia artemisifolia [11]; 0.400 kg/ha): 9 (9-Complete kill)
Assessment (pre-emergence application) ECHCG (Echinochloa crus-galli [12]; 0.400 kg/ha): 5 (5-Definite injury)
Assessment (pre-emergence application) GALAP (Galium aparine): 1 (1-Trace effect)
Assessment (pre-emergence application) DIGSA (Digitaria sanguinalis): 9 (9-Complete kill)
Assessment (pre-emergence application) ABUTH (Abutilon theophrasti [13]; 0.400 kg/ha): 0 (0-No effect)
Assessment (pre-emergence application) GLXMA (Glycine max [14]; 0.400 kg/ha): 2 (2-Slight effect)
Assessment (pre-emergence application) MATIN (Matricaria inodora [15]; 0.400 kg/ha): 8 (8-Approaching complete kill)
Assessment (pre-emergence application) ALOMY (Alopecurus myosuroides [16]; 0.400 kg/ha): 7 (7-Good herbicidal effect)
Assessment (pre-emergence application) TRZWA (Triticum aestivum [17]; 0.400 kg/ha): 1 (1-Trace effect)
Assessment (pre-emergence application) STEME (Stellaria media): 9 (9-Complete kill)
Assessment (pre-emergence application) ZEAMX (Zea mays [18]; 0.400 kg/ha): 1 (1-Trace effect)
Assessment (pre-emergence application) IPOHE (Ipomoea hederacea [19]; 0.400 kg/ha): 1 (1-Trace effect)
Assessment (pre-emergence application) SETVI (Setaria viridis [20]; 0.400 kg/ha): 5 (5-Definite injury)
Assessment (pre-emergence application) ORYSA (Orysa sativa): 0 (0-No effect)
